# How the values were obtained:
# MV4-11 cells = assay: Cell proliferation assay (ATPlite); type: cell-based; details: Homo sapiens, MV4-11, 120 h; MV-411 cells, five days; read-out: In vitro whole cell potency in MV-411 cells, (IC50)
# Summary of the method: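 Read-out is ATP-based luminescence (ATPlite) after 5 days of culture at 37° C under 5% CO2. Compounds were given as 10-point dilutions starting at 10 μM to MV4-11 cells, seeded at 1,000 cells/well in Alpha-MEM plus 10% FBS.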
# WDR5 = WDR5 (Homo sapiens (Human), UniProt P61964); assay: Surface Plasmon Resonance (SPR) assay, KD and residence time; type: binding; details: surface plasmon resonance (SPR) assay; read-out: WDR5 binding affinity (KD)
Structure (SMILES),IC50 (MV4-11 cells) [µM],Kd (WDR5) [µM]
"CC(C)COc1ncc(-c2cc(NC(=O)c3c[nH]c(=O)cc3C(F)(F)F)c(N3C[C@@H](C)N(C)[C@@H](C)C3)cc2F)cc1Cl [Example 91, N-[5-[5-chloro-6-(2-methylpropoxy)pyridin-3-yl]-4-fluoro-2-[(3R,5S)-3,4,5-trimethylpiperazin-1-yl]phenyl]-6-oxo-4-(trifluoromethyl)-1H-pyridine-3-carboxamide]",0.257,0.00447
"C[C@@H]1CN(c2cc(F)c(C3=CCN(c4ncccn4)CC3)cc2NC(=O)c2c[nH]c(=O)cc2C(F)(F)F)C[C@H](C)N1C [Example 245, N-[4-fluoro-5-(1-pyrimidin-2-yl-3,6-dihydro-2H-pyridin-4-yl)-2-[(3R,5S)-3,4,5-trimethylpiperazin-1-yl]phenyl]-6-oxo-4-(trifluoromethyl)-1H-pyridine-3-carboxamide]",0.125,0.00139
"C[C@@H]1CN(c2cc(F)c(-c3ccc(N4CCOCC4)c(F)c3)cc2NC(=O)c2cn(C)c(=O)cc2C(F)(F)F)C[C@H](C)N1C [Example 247, N-[4-fluoro-5-(3-fluoro-4-morpholin-4-ylphenyl)-2-[(3R,5S)-3,4,5-trimethylpiperazin-1-yl]phenyl]-1-methyl-6-oxo-4-(trifluoromethyl)pyridine-3-carboxamide]",0.854,0.00516
"C[C@@H]1CN(c2cc(F)c(-c3cnc(N4CCOCC4)nc3)cc2NC(=O)c2ccc(F)cc2C(F)(F)F)C[C@H](C)N1C [Example 248, 4-fluoro-N-[4-fluoro-5-(2-morpholin-4-ylpyrimidin-5-yl)-2-[(3R,5S)-3,4,5-trimethylpiperazin-1-yl]phenyl]-2-(trifluoromethyl)benzamide]",0.137,0.00133

# Now those with a lower IC50 (MV4-11 cells), led by results:
IC50 (MV4-11 cells) [µM],Kd (WDR5) [µM],Structure (SMILES)
0.12,0.000441,"COCCOc1ccc(-c2cc(NC(=O)c3c[nH]c(=O)cc3C(F)(F)F)c(N3C[C@@H](C)N(C)[C@@H](C)C3)cc2F)cc1 [Example 90, N-[4-fluoro-5-[4-(2-methoxyethoxy)phenyl]-2-[(3R,5S)-3,4,5-trimethylpiperazin-1-yl]phenyl]-6-oxo-4-(trifluoromethyl)-1H-pyridine-3-carboxamide]"
0.071,0.0109,"C[C@@H]1CN(c2cc(F)c(-c3ccc(OCC4CC4)c(Cl)c3)cc2NC(=O)c2c[nH]c(=O)cc2C(F)(F)F)C[C@H](C)N1C [Example 92, N-[5-[3-chloro-4-(cyclopropylmethoxy)phenyl]-4-fluoro-2-[(3R,5S)-3,4,5-trimethylpiperazin-1-yl]phenyl]-6-oxo-4-(trifluoromethyl)-1H-pyridine-3-carboxamide]"
0.048,0.00217,"C[C@@H]1CN(c2cc(F)c(-c3cnc(N4CCOCC4)nc3)cc2NC(=O)c2cn(C)c(=O)cc2C(F)(F)F)C[C@H](C)N1C [Example 93, N-[4-fluoro-5-(2-morpholin-4-ylpyrimidin-5-yl)-2-[(3R,5S)-3,4,5-trimethylpiperazin-1-yl]phenyl]-1-methyl-6-oxo-4-(trifluoromethyl)pyridine-3-carboxamide]"
0.028,0.001,"C[C@@H]1CN(c2ncc(-c3cc(NC(=O)c4c[nH]c(=O)cc4C(F)(F)F)c(N4C[C@@H](C)N(C)[C@@H](C)C4)cc3F)cn2)C[C@H](C)O1 [Example 161, N-[4-fluoro-5-[2-[(2R,6S)-2,6-dimethylmorpholin-4-yl]pyrimidin-5-yl]-2-[(3S,5R)-3,4,5-trimethylpiperazin-1-yl]phenyl]-6-oxo-4-(trifluoromethyl)-1H-pyridine-3-carboxamide]"
0.12,0.000769,"C[C@@H]1CN(c2cc(F)c(-c3cnc(N(C)C)c(F)c3)cc2NC(=O)c2c[nH]c(=O)cc2C(F)(F)F)C[C@H](C)N1C [Example 221, N-[5-[6-(dimethylamino)-5-fluoropyridin-3-yl]-4-fluoro-2-[(3R,5S)-3,4,5-trimethylpiperazin-1-yl]phenyl]-6-oxo-4-(trifluoromethyl)-1H-pyridine-3-carboxamide]"

# — patent US11319299B2, “Substituted carboxamides as inhibitors of WDR5 protein-protein binding” (PROPELLON THERAPEUTICS INC., priority 2016, dated 2022)
